These results are taken from publication PMC5461506, “Strength of Neisseria meningitidis binding to endothelial cells requires highly-ordered CD147/β2-adrenoceptor clusters assembled by alpha-actinin-4” (Nature Communications, 2017).

No end group written: not given here. *: point of attachment. Biotin = O=C1N[C@H]2[C@H](CS[C@H]2CCCCC(=O)*)N1

Experiment [1] deals with juxta-membrane cytosolic portion of CD44. Kind of experiment: Surface plasmon resonance, immobilized CD44 juxta-membrane peptide. Format: binding. The settings on record: SPR, non-reducing buffer, BIAcore T200, read-out: dissociation constant (Kd). On the procedure: (§1) For SPR experiments, the fusion proteins GST-Actn4, GST alone or the GST-FERM domain of ezrin used as a control were diluted either in a non-reducing (PBS, 0.02% Tween-20) or a reducing (10 mM HEPES, 150 mM NaCl, 1 mM EDTA, 1 mM dithiothreitol, 0.005% Tween-20) running buffer. To control the impact of these buffers on the dimerization status of Actn4, Actn4-GST or GST alone as a control (final concentration 100 nM) were incubated for 30 min with 250 μM freshly prepared solution of bissulfosuccinimidyl suberate crosslinker, then separated on SDS–PAGE gels and transferred to nitrocellulose to analyse their electrophoretic migration by immunoblot. Interaction studies between α-Actn4 and CD147 were performed on a BIAcore T200 Instrument (BIAcore Life Sciences, GE Healthcare Europe). Streptavidin-coated sensor chips (Series S sensor chip SA; GE Healthcare) were used to capture a biotinylated peptide encoding the cytosolic sequence of CD147 (Biotin-[…]) or the juxta-membrane region of CD44 (Biotin-NSRRRCGQKKKLVINSG), purchased from Proteogenix, at a flow rate of 5 μl min^−1 in the non-reducing or the reducing running buffer. The density was controlled at an increased response level of 630 and 286 response units (RUs), for CD147 and CD44, respectively depending on molecular weight. […] Output sensorgrams were analysed using the BIAevaluation 4.1.1 Software.
In general terms: Surface plasmon resonance follows binding to a sensor surface in real time, without labels.

A further experiment relates to cytosolic tail of CD147. Kind of experiment: Surface plasmon resonance, immobilized CD147 cytosolic peptide. The conditions noted are these: SPR, non-reducing buffer. The class given is binding. On the procedure: as §1
In another experiment the test system is CD147–β2AR complex. Description: BRET between CD147-Rluc and β2AR-YFP. The class given is cell-based, human. The conditions noted are these: HEK293 cells. A general note: In BRET a luciferase serves as donor, and the signal depends on an acceptor being close.
The target in experiment [2] is T1, recombinant glutathione-S-transferase (GST)–Actn4 fusion protein (human, UniProt O43707 1-911).
T1 construct: also called Actn4-GST; source: recombinant, purified
Description: SPR; BIAcore T200, biotinylated peptide captured on streptavidin chip, GST-Actn4 as analyte, reducing buffer (10 mM HEPES, 150 mM NaCl, 1 mM EDTA, 1 mM dithiothreitol, 0.005% Tween-20); apparent affinity. The conditions noted are these: both partners purified.

Experiment [3] addresses T1, recombinant glutathione-S-transferase …. Description: SPR; BIAcore T200, biotinylated peptides captured on streptavidin chip (630 RU CD147, 286 RU CD44), GST fusions as analytes, non-reducing buffer (PBS, 0.02% Tween-20), 25 μl/min, 60 s association, 60 s dissociation. The settings on record: both partners purified.
The target of experiment [4] is T2, GST-coupled four-point-one, ezrin, radixin, moesin (FERM) domain of ezrin (human, UniProt P15311 2-296).
T2 construct: also called GST-FERM domain of ezrin; ezrin FERM domain in fusion with GST
Described as above. The conditions noted are these: both partners purified.

T1 sequence (O43707 whole entry, the tested form may be a part): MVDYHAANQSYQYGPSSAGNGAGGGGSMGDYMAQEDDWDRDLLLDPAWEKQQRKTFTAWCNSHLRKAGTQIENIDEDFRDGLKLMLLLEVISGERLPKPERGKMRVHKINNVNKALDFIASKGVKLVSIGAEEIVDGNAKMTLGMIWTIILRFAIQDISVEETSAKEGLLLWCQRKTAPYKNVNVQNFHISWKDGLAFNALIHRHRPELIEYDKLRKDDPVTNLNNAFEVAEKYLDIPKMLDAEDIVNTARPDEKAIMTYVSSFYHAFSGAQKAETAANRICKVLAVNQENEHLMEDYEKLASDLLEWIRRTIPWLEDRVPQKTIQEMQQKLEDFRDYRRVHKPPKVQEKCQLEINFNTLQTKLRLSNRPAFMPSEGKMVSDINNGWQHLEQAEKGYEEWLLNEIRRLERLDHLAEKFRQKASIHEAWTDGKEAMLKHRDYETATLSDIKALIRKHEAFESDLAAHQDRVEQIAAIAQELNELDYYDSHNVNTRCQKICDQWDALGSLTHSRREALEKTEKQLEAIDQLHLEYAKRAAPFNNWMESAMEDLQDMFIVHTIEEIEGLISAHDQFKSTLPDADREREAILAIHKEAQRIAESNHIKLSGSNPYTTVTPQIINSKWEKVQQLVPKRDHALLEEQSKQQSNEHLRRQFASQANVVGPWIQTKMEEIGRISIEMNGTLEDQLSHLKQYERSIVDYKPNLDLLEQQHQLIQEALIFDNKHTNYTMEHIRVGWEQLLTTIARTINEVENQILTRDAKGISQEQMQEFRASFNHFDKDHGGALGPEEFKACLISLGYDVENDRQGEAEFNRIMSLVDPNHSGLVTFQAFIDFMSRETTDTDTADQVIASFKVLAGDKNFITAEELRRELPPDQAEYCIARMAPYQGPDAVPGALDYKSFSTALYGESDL
T2 sequence (P15311 2-296): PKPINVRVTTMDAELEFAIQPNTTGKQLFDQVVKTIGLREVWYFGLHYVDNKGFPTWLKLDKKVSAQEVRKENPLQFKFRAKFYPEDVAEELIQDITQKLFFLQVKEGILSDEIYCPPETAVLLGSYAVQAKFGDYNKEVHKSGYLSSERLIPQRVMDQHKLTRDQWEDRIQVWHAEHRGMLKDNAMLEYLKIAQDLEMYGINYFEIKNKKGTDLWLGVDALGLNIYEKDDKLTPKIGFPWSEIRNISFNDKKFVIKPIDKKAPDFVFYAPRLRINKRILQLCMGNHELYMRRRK
Description for CD147–β2AR complex: HEK293 cells (2 × 10^5 per well of a 6-well plates) were transfected with 2 ng plasmid DNA coding for the BRET donor (CD147-Luc, CD147ΔD2-Luc) and increasing amounts of BRET acceptor plasmids (β2-YFP, CCR5-YFP; 0–400 ng per well). Twenty-four hours after transfection, cells were resuspended in Hank's balanced salt solution and distributed in 96-well plates (Perkin-Elmer plates; 10^5 cells per well). After addition of the luciferase substrate, coelenterazine h (5 μM final concentration), luminescence at 485 nm and fluorescence at 530 nm were measured simultaneously in a Mithras LB940 Plate Reader. The BRET ratio was calculated as: ((emission at 530 nm/emission at 485 nm)−(background at 530 nm/background at 485 nm)), where background corresponds to signals in cells expressing the Rluc fusion protein alone under the same experimental conditions. For better readability, results were expressed in milli-BRET units (mBRET), 1 mBRET corresponding to the BRET ratio multiplied by 1000. BRET ratios were plotted as a function of ([YFP-YFP0])/(Rluc), where YFP is the fluorescence signal at 530 nm after excitation at 485 nm, and Rluc the signal at 485 nm after addition of coelenterazine h. YFP0 and Rluc0 correspond to the same values in cells expressing the Rluc fusion protein alone. […]

“GST-coupled four-point-one, ezrin, radixin, moesin (FERM) domain of ezrin: GST-FERM domain of ezrin used as a control”: the Kd in experiment [1] worked out at 4.3 ± 0.1 nM. The “interaction with immobilized CD147 peptide” value in the experiment with cytosolic tail of CD147 is “poorly interacted with the CD147 peptide”.

Regarding `CC(C)NCC(O)c1ccc(O)c(O)c1` (centres unmarked) [isoproterenol], in the experiment on CD147–β2AR complex (2 ng CD147-Rluc, 20 ng β2AR-YFP, isoproterenol 10 μM, read every 2 min for 20 min, mean±s.e.m., n=3, representative of four experiments), the “BRET signal between CD147 and β2AR” value is listed as “reduced”.

In the case of `CC(C)NCC(O)COc1cccc2ccccc12` (centres unmarked) [propranolol], the “effect on isoproterenol-induced BRET reduction” value with CD147–β2AR complex (10 μM isoproterenol in combination with 10 μM propranolol, 20 min) is “This effect was inhibited”.

B1: biotinylated peptide encoding the cytosolic sequence of CD147 (peptide)
peptide: Biotin-AYDKRRKPEDVLDDDDAGSAPLKSSGQHQNDKGKNVRQRNSS
notes: also called CD147-CT; CD147 peptide; source: synthetic peptide, bought: ProteoGenix
With B1, the Kd in experiment [2] came to 44600 ± 32500 nM; in experiment [3] it was 4 ± 0.01 nM.

B2: biotinylated peptide of the juxta-membrane region of CD44 (peptide)
peptide: Biotin-NSRRRCGQKKKLVINSG
notes: also called cytosolic tail of CD44; juxta-membrane cytosolic portion of CD44; source: synthetic peptide, bought: ProteoGenix
As to B2, the values for the Kd in experiment [3] and in experiment [4] were 159 ± 43 nM and 4.3 ± 0.1 nM, respectively.
